{"source": "patent US8692023B2", "about": "“Sugar metabolism improving composition, and pharmaceutical preparation containing said composition” (Erina Co., Inc., priority 2010, dated 2014)", "key": {"[1]": {"system": "L6 myotube cells", "experiment": "Glucose intake by L6 myotube cells (decrease of glucose in culture solution)", "assay_type": "cell-based, rat", "details": "nepodin 10 to 40 μM, 4 hours, versus medium without nepodin", "description": "L6 myoblast cells were suspended at concentration of 12.5×10^4 cells/mL in a D-MEM medium with 5.5 mM of glucose concentration to which 10% v/v fetal bovine serum, 100 μg/mL of streptomycin, and 100 U/mL of penicillin G were added.\nThe cells were inoculated at the concentration 5×10^4 cells/well (0.4 mL/well) in 24 well multi-plate (NUNC Co., Inc.); then cultured in a 5% CO2 incubator at 37° C. for 11 days. The medium was exchanged every 3 days.\nAfter 11 days, the culture medium was replaced with filter sterilized Krebs solution (Krebs-Henseleit buffer; pH 7.4, 141 mg/L of MgSO4, […] of KH2PO4, 350 mg/L of KCL, 6,900 mg/L of NaCl, 373 mg/L of CaCl2.2H2O, and 2,100 mg/L of NaHCO3) (KHH buffer) supplemented with 0.1% bovine serum albumin, 10 mM of Hepes, and […] of pyruvate sodium but without glucose to maintain the cells in the 5% CO2 incubator at 37° C. for 2 hours.\nNext, each KHH buffer was prepared: only 11 mM glucose was added, or 11 mM of glucose and nepodin (10 μM, 20 μM, or 40 μM). […]\nGlucose concentrations in the culture solution at the beginning and after 4 hours from the culture start were determined by using a microplate reader (Beckman Coulter, Inc. AD200) and a glucose determination kit (Glucose CII test Wako (Wako Pure Chemical Industries, Ltd.), Catalog number 439-90901). […]"}, "[2]": {"system": "AMPK (5′ adenosine monophosphate-activated protein kinase)", "experiment": "Phosphorylated AMPK in L6 myotube cells by western blotting", "assay_type": "cell-based, rat", "details": "nepodin 30 μM, up to 120 minutes", "description": "The effect of nepodin administration was decided by determining the amount of a phospholylated AMPK (5′ adenosine monophosphate-activated protein kinase), which was important for glucose metabolism in L6 myotube cells, as an activation index.\nL6 myoblast cells were suspended in D-MEM (5.5 mM of glucose concentration) supplemented with 10% v/v fetal bovine serum, 100 μg/mL of streptomycin, and 100 U/mL of penicillin G so as to become the cell concentration at 12.5×10^4 cells/well.\nL6 myoblast cells were inoculated into a 6 cm diameter dish (FALCON Co., Inc.) (2 mL/well) so as to become the concentration at 5×10^5 cells/well, and cultured in the 5% CO2 incubator at 37° C. for 11 days. The medium was exchanged every 3 days. […]\nThe negative control samples were prepared by using the cytolytic buffer to be added to the cells cultured with the medium including DMSO, the solvent of nepodin, at the same amount as nepodin. The negative control sample and the samples were separated by using SDS-PAGE according to the conventional method, and were analyzed by using anti-phosphorylated AMPK antibody and anti-AMPK antibody by the western blotting."}, "[3]": {"system": "db/db diabetes model mouse", "experiment": "Fasting blood glucose of diabetes model mice", "assay_type": "in vivo", "details": "4 hour fasting, 2 to 4 weeks after administration start, versus no nepodin", "description": "Effect of nepodin was evaluated by using fasting blood glucose of model mice (db/db mouse) having diabetes II as an index.\nNepodin was suspended in 0.5% carboxymethylcellulose aqueous solution (Wako Pure Chemical Industries, Ltd.). Male mice of 5 week old, BKS. Cg-+Lerp^db/+Lerp^db/J mouse (db/db diabetes model mouse, hereinafter, it is referred to as “diabetes model mouse”) for a test group (nepodin administration group) were purchased from Charles River Laboratories Japan Inc. Prior to the test, they were maintained for 1 week under the condition of 12 h light/12 h dark at a room temperature approximately 25° C., feeding normal diet. It is considered that db/db mouse also becomes a model for a metabolic syndrome model, because it is obese and has higher levels of variety of lipid.\nHeterozygous male mice of 5 week old, BKS. Cg-+Dock 7^m/+Lerp^db/J mouse (normal mouse) for a negative control group (without nepodin administration) were purchased from Charles River Japan Inc. Prior to the test, they were maintained as the same condition as those of the test group. […]\nBlood samples were obtained from the tail vein of the mice after 4 hour fasting per week. The blood glucose level was measured by using Glucose CII test Wako (Wako Pure Chemical Industries, Ltd.)"}, "[4]": {"experiment": "Feed intake and body weight gain of diabetes model mice", "assay_type": "in vivo, mouse", "details": "for Weight gain / Feed intake: diabetes mice", "description": "Nepodin was suspended in 0.5% carboxymethylcellulose aqueous solution (Wako Pure Chemical Industries, Ltd.). Male mice of 5 week old, BKS. Cg-+Lerp^db/+Lerp^db/J mouse (db/db diabetes model mouse, hereinafter, it is referred to as “diabetes model mouse”) for a test group (nepodin administration group) were purchased from Charles River Laboratories Japan Inc. Prior to the test, they were maintained for 1 week under the condition of 12 h light/12 h dark at a room temperature approximately 25° C., feeding normal diet. It is considered that db/db mouse also becomes a model for a metabolic syndrome model, because it is obese and has higher levels of variety of lipid. The test group mice were divided into 3 groups: C group (positive control group; n=10) with no nepodin administration; A group (n=6) to which nepodin was administered at the dose of 2 mg/kg/day or 10 mg/kg/day for 5 weeks; and B group (n=6). 0.5% carboxymethylcellulose aqueous solution without nepodin was administered to the negative control group (N group; n=6) and the positive control group (C group) under the same conditions as described above. Feeds and water are freely given to each group."}, "[5]": {"system": "db/db diabetes model mouse", "experiment": "Intraperitoneal glucose tolerance test (IPGTT) in diabetes model mice", "assay_type": "in vivo", "description": "Effect on glucose tolerance by nepodin administration was measured by using blood glucose level change after the intraperitoneal administration of nepodin to the diabetes model mice.\nIntraperitoneal glucose tolerance test (IPGTT) was performed on the sixth week after nepodin administration start. At first, the mice of each group were fasted for 16 hours, and then, glucose was intraperitoneally administrated to each mouse at the dose of 2 g/kg.\nBlood samples were obtained from the tail vain of each mouse at the time point of 0 min., 30 min., 60 min., 90 min., 120 min., and 180 min. after the glucose administration. Blood glucose level was determined by using Glucose CII Test Wako (Wako Pure Chemical Industries, Ltd.)"}, "[6]": {"system": "db/db diabetes model mouse", "experiment": "HOMA-IR insulin resistance index in diabetes model mice", "assay_type": "in vivo", "details": "groups A and B (2 and 10 mg/kg/day) versus group C", "description": "(§1) After the termination of the experiment shown in EXAMPLE 4, the blood samples were obtained from the abdominal aorta of the mice from each group under anesthesia, and they were centrifuged with 1,000×g at room temperature to obtain serum samples. After that, the mice of each group were killed by cervical dislocation to put out of the misery; then organs were excised to use the following experiments.\nSerum insulin level of Lewi's insulin-mouse-T (Shibayagi Co., Ltd.) was determined by ELISA (measurement at the wavelengths of 450 nm and 620 nm), according to protocols written in its package insert.\nHOMA-IR (Homeostasis model assessment-Insulin Resistance), which is an index of the insulin resistance, was calculated based on data on both blood glucose and serum insulin, by using following equation. HOMA-IR=(blood glucose×insulin level)/405 (1)\nHOMA-IR values were obtained from both levels of serum blood glucose and serum insulin of the mice in group N (the normal mice), the administration groups A, B, and C. They were used to investigate for the change of the insulin resistant index."}, "[7]": {"system": "db/db diabetes model mouse", "experiment": "Liver and serum neutral lipid and cholesterol levels in diabetes model mice", "assay_type": "in vivo", "source_text": "as §1\nLivers from the mice of each group were homogenized and total lipid was extracted by using Folch method. Both amounts of neutral lipid and cholesterol in the liver were determined by using LabAssat Tiglyceride (Wako Pure Chemical Industries, Ltd.) and LabAssay Cholesterol (Wako Pure Chemical Industries, Ltd.) Results are shown in FIGS. 7A and 7B.\nThe serum neutral lipid (triglyceride) level was determined by using LabAssay Triglyceride (Wako Pure Chemical Industries, Ltd.). The serum cholesterol level was determined by using LabAssay Cholesterol (Wako Pure Chemical Industries, Ltd.)."}, "[8]": {"system": "db/db diabetes model mouse", "experiment": "Serum TBARS value (anti-oxidizing action) in diabetes model mice", "assay_type": "in vivo", "details": "groups A and B versus group C", "description": "as §1\nTBARS value, an index for anti-oxidizing action, was determined by using a TBARS Assay Kit (ZeptoMetrix Co., Inc.)."}, "[9]": {"details": "nepodin administration groups versus diabetes model group with no administration"}}, "data": [{"smiles": "CC(=O)c1c(C)cc2cccc(O)c2c1O", "note": "[nepodin, 2-Acetyl-1,8-dihydroxy-3-methyl-napthalene]", "values": [{"measurement": "glucose intake by L6 myotube cells", "setting": "[1]", "result": "dose-dependently improved"}, {"measurement": "Phosphorylated AMPK in L6 myotube cells", "setting": "[2]", "result": "increased"}, {"measurement": "fasting blood glucose level", "setting": "[3]", "result": "significantly lower"}, {"measurement": "Weight gain", "setting": "[4]; group A, nepodin 2 mg/kg/day", "result": "18.7 ± 1.76", "unit": "g/5 weeks"}, {"measurement": "Feed intake", "setting": "[4]; group A, nepodin 2 mg/kg/day for 5 weeks", "result": "5.26 ± 0.61", "unit": "g/day"}, {"measurement": "Weight gain", "setting": "[4]; group B, nepodin 10 mg/kg/day", "result": "19.45 ± 2.68", "unit": "g/5 weeks"}, {"measurement": "Feed intake", "setting": "[4]; group B, nepodin 10 mg/kg/day for 5 weeks", "result": "5.40 ± 0.50", "unit": "g/day"}, {"measurement": "average amount of feed intake and body weight gain versus C group", "setting": "[4]; diabetes model mice, A group and B group (2 or 10 mg/kg/day) versus no nepodin", "result": "no significant difference"}, {"measurement": "area under the curve (AUC) of blood glucose levels", "setting": "[5]; B group (10 mg/kg), AUC of C group = 100%, p<0.01", "result": "significantly low"}, {"measurement": "increase of the blood glucose level after glucose load", "setting": "[5]; B group, 10 mg/kg nepodin, sixth week, glucose 2 g/kg i.p. after 16 hours fasting", "result": "significantly suppressed"}, {"measurement": "HOMA-IR", "setting": "[6]", "result": "significantly lower"}, {"measurement": "cholesterol level in the liver", "setting": "[7]; groups A and B versus group C", "result": "significantly lower"}, {"measurement": "neutral lipid level in the liver", "setting": "[7]; groups A and B versus group C", "result": "significantly lower"}, {"measurement": "serum cholesterol level", "setting": "[7]; [9]", "result": "significantly lower"}, {"measurement": "serum neutral lipid (triglyceride) level", "setting": "[7]; [9]", "result": "significantly lower"}, {"measurement": "serum TBARS value", "setting": "[8]", "result": "significantly lower"}]}]}
